Data taken from patent US20190365760A1, “A THERAPEUTIC OR PROPHYLACTIC AGENT FOR ISCHEMIC DISEASE, GLAUCOMA, OPTIC NERVE DISEASE, RETINAL DEGENERATIVE DISEASE, ANGIOGENIC RETINAL DISEASE, CANCER, NEURODEGENERATIVE OR AUTOIMMUNE DISEASE, AND A HYPOXIA INDUCING FACTOR INHIBITOR” (KEIO UNIVERSITY, priority 2016, published 2019).

Experiments:
HIF [1] = assay: HIF reporter assay (HIF-activity-dependent Firefly-Luciferase) in 661W cells with CoCl2; format: cell-based, mouse; conditions: for cytotoxicity (endogenous control CMV-Renilla-Luciferase activity): CoCl2; for HIF activity (HIF inhibitory activity): CoCl2 200 μM, luminescence 24 hours after CoCl2
Experimental: (§1) The HIF-activity-dependent Firefly-Luciferase and endogenous control CMV-Renilla-Luciferase were both transgenic into mouse fibroblast cell line (NIH3T3) and mouse retinal […] cell line (661 W) using lentiviruses to generate stable expression lines. HIF can be stabilized by adding cobalt chloride (CoCl2), a PHD inhibitor, to the cells, and luciferin can be added to obtain a luminescent signal correlating with HIF activity. Samples of various natural products were added to the cells to confirm the HIF inhibitory effect of the candidate on cobalt chloride-induced HIF activity.
(§2) Specifically, 1×10^4 of NIH3T3 cells and 0.8×10^4 of 661 W cells were seeded on a 96-well plate with the above cell lines. After cells were engrafted to the bottom of the plate, HIF-activity was induced by adding CoCl2 at 200 μM. The luminescence strength was measured 24 hours after the CoCl2 was added using a Dual-Glo Luciferase assay system manufactured by Promega Corporation. The candidates were added at the same time as the of the CoCl2.

HIF [2] = assay: HIF reporter assay (HIF-activity-dependent Firefly-Luciferase) in NIH3T3 cells with CoCl2; format: cell-based, mouse; conditions: for cytotoxicity (endogenous control CMV-Renilla-Luciferase activity): CoCl2; for HIF activity (HIF inhibitory activity): CoCl2 200 μM, luminescence 24 hours after CoCl2
Experimental: as §1, §2

glut1 gene = assay: Real-time PCR gene expression in 661W cells with CoCl2; format: cell-based, mouse; conditions: CoCl2 200 μM, four hours after adding halofuginone
Experimental: (§3) In the system of 661W cells to which the CoCl2 was added, the expression levels of the respective genes were measured in order to examine the inhibitory effects of halofuginone on the hif gene induced by the CoCl2 and the bnip3 gene, glut1 gene, pdk1 gene, and vegf gene which are the downstream genes. The expression level was measured by Real-time PCR. Specifically, 3×10^4 of 661 W cells were seeded on a 24-well plate, and CoCl2 was added at a density of 200 μM after cell immobilization. Halofuginone was added at the concentrations shown in FIG. 14 simultaneously with CoCl2. Four hours after adding halofuginone, RNAs were extracted, cDNA was synthesized, and then Real-time PCR was performed to determine the expression levels of the respective genes.

pdk1 gene = assay: as above; format: cell-based, mouse; conditions: CoCl2 200 μM, four hours after adding halofuginone
Experimental: as §3

bnip3 gene = assay: as above; format: cell-based, mouse; conditions: CoCl2 200 μM, four hours after adding halofuginone
Experimental: as §3

[3] = tested on: Mouse Retinal Photoinjury Model; assay: Mouse retinal photoinjury model, electroretinography; format: in vivo, BALB/c mice; conditions: 0.4 mg/kg intraperitoneally once daily for 5 days, white LED 3000 lux 1 hour, compared with PBS group
Experimental: First, 0.4 mg/kg of halofuginone solution dissolved in PBS was administered intraperitoneally once daily to BALB/c mice 8 weeks old for 5 consecutive days (halofuginone group; n=4). The control group received the same amount of PBS (phosphate buffered saline) intraperitoneally (n=4) for the same period of time. Dark adaptation was performed on day 4 of the above period and then on day 5 a white LED of 3000 lux was irradiated for 1 hour. Dark adaptation was performed on day 6 after the light irradiation, and electroretinography was performed on day 7.

HIF [4] = assay: HIF reporter assay in ARPE19 cells with CoCl2; format: cell-based
Experimental: as §1, §2
Halofuginone, a halogenated derivative of ferbrifudine in Hydrangea macrophylla, was used as a sample to measure HIF activity on 661W cells, 3T3 cells, or ARPE19 cells in the assays described above. […] In FIGS. 11 to 13, “CoCl2+HF” indicates a system in which CoCl2 are added to the cells. […]

[5] = tested on: mouse ganglion cell disorder model; conditions: vitreous administration of N-methyl-D-aspartic acid; previously reported by the inventors; cited from earlier work
[6] = tested on: Mouse Retinal Ischemia-Reperfusion Model; assay: Mouse retinal ischemia-reperfusion model, visual evoked potential (VEP); format: in vivo, C57BL6J mice; conditions: 0.2 mg/kg intraperitoneally, 1 Hz flashing light 3 cds/m^2
Experimental: (§4) First, 0.2 mg/kg of halofuginone solution dissolved in PBS was administered intraperitoneally once daily to C57BL6J mice 8 weeks old (male; manufactured by Crea Japan) for 7 consecutive days (Halofuginone group; n=4). The control group received the same dose of PBS intraperitoneally for the same period (n=4).
(§5) Retinal ischemia reperfusion treatment was then performed as follows.
(§6) Nine-week-old mice were administered intraperitoneal anesthetics (three mixtures: medetomidine 0.75 mg/kg, midazolam 4 mg/kg, and butorphanol 5 mg/kg; hereinafter referred to as “MMB”). At the same time as anesthesia, Midrin P ophthalmic solution (Santen Pharmaceutical Co., Ltd.) was used to dilate both eyes.
(§7) The physiological saline infusion bags were fixed at a height of 1.5 m from the laboratory table, inserted into the anterior chamber of the right eye of the mice with 35 G needles perfused with physiological saline, and perfusion was started. Intraocular pressure was measured every 5 minutes (Tonolab hand-held tonometer; manufactured by icare Corporation) to confirm that intraocular pressure was maintained at 85-99 mm Hg. […]
The VEPs of the same individuals were then measured continuously. […]
Differences (P1-N1) from each first negative crest to the next positive crest were measured as amplitudes, and latencies were also measured, and the mean of two times was evaluated as the value of one individual.

[7] = tested on: Mouse Retinal Ischemia-Reperfusion Model; assay: Mouse retinal ischemia-reperfusion model, optical coherence tomography (OCT); format: in vivo, C57BL6J mice; conditions: 0.2 mg/kg intraperitoneally, radius 250 μm from optic nerve head
Experimental: as §4, §5, §6, §7
The entire thickness of the retina was evaluated using OCTs in order to measure the total thickness of the retina in the In vivo.
Mice were fixed under MMB anesthesia and the total retinal thickness centered on the optic papilla was measured. […]

For `CC[C@@]1(O)C(=O)OCc2c1cc1n(c2=O)Cc2cc3c(CN(C)C)c(O)ccc3nc2-1` [topotecan], the “cytotoxicity (endogenous control CMV-Renilla-Luciferase activity)” value (from here on “cytotoxicity”) (HIF [1]) was “without cytotoxicity” and the “cytotoxicity” value (HIF [2]) was “without cytotoxicity”.
With `O=C(C[C@@H]1NCCC[C@H]1O)Cn1cnc2cc(Br)c(Cl)cc2c1=O` [halofuginone] the “expression level of the glut1 gene” value (glut1 gene) was “decreased”, the “expression level of the pdk1 gene” value (pdk1 gene) was “decreased” and the “expression level of the bnip3 gene” value (bnip3 gene) was “decreased”. For the same molecule, the “electroretinography amplitude (dark-adapted and light-adapted)” value [3] was “decrease in amplitude was suppressed”, the “HIF activity (HIF inhibitory activity)” value (HIF [4]) was “significant level-dependent HIF inhibitory activity” and the “HIF activity (HIF inhibitory activity)” value (HIF [1]) was “significant level-dependent HIF inhibitory activity”. For the same molecule, the neuroprotective effect [5] was “neuroprotective effect”, the “VEP amplitude (P1-N1)” value [6] was 92±10.9 μV and the “total thickness of the retina by OCT” value [7] was 251.9±7.2 μm. The “HIF activity (HIF inhibitory activity)” value (HIF [2]) was “significant level-dependent HIF inhibitory activity”.
For `COc1cccc2c1C(=O)c1c(O)c3c(c(O)c1C2=O)C[C@@](O)(C(=O)CO)C[C@@H]3O[C@H]1C[C@H](N)[C@H](O)[C@H](C)O1` [doxorubicin], the “cytotoxicity” value (HIF [1]) was “without cytotoxicity”, the “HIF activity (HIF inhibitory activity)” value (HIF [1]) was “significantly decreased” and the “cytotoxicity” value (HIF [2]) was “without cytotoxicity”. The “HIF activity (HIF inhibitory activity)” value (HIF [2]) was “significantly decreased”.
